Experiment [1] concerns Human alphaherpesvirus 2. The experiment can be described thus: Antiviral activity against Herpes simplex virus 2 assessed as inhibition of virus-induced cytopathic effect after 72 hrs by two-fold dilution method. In kind it is functional. Conditions: Human alphaherpesvirus 2, 72 h.
Another experiment relates to rhinovirus B14. The experiment can be described thus: Antiviral activity against Human rhinovirus 14 assessed as inhibition of virus-induced cytopathic effect at 37 degC after 72 hrs by two-fold dilution method. Type of experiment: functional. The note with it: Rhinovirus B. A general note: Protection from cytopathic effect is a common read-out in antiviral testing.

The nature of experiment [2]: Antiviral activity against Human rhinovirus 17 assessed as inhibition of virus-induced cytopathic effect at 37 degC after 72 hrs by two-fold dilution method. Conditions: Rhinovirus B. In kind it is functional, Human rhinovirus B17.
Experiment [3] concerns unidentified influenza virus. Description: Antiviral activity against Parainfluenza virus assessed as inhibition of virus-induced cytopathic effect at 37 degC after 72 hrs by two-fold dilution method. In kind it is functional.
Experiment [4] concerns Respiratory syncytial virus. Description: Antiviral activity against Respiratory syncytial virus assessed as inhibition of virus-induced cytopathic effect at 37 degC after 72 hrs by two-fold dilution method. Conditions: human respiratory syncytial virus. Type of experiment: functional.
The subject of experiment [5] is Human alphaherpesvirus 1. The experiment can be described thus: Antiviral activity against Herpes simplex virus 1 assessed as inhibition of virus-induced cytopathic effect at 37 degC after 72 hrs by two-fold dilution method. In kind it is functional. Conditions: Human alphaherpesvirus 1, 72 h.
The test system of experiment [6] is Human alphaherpesvirus 1. Description: Antiviral activity against Herpes simplex virus 1 Sheely assessed as inhibition of virus-induced cytopathic effect at 37 degC after 72 hrs by two-fold dilution method. The note with it: Human alphaherpesvirus 1, Sheely. Type of experiment: functional.
Experiment [7] has as its system Human alphaherpesvirus 2. Description: Antiviral activity against Herpes simplex virus 2 Curtis assessed as inhibition of virus-induced cytopathic effect at 37 degC after 72 hrs by two-fold dilution method. The note with it: Human alphaherpesvirus 2, Curtis. Type of experiment: functional.
Another experiment has as its system rhinovirus A2. The experiment can be described thus: Antiviral activity against Human rhinovirus 2 assessed as inhibition of virus-induced cytopathic effect at 37 degC after 72 hrs by two-fold dilution method. Type of experiment: functional. Conditions: Rhinovirus A.
In experiment [8] the test system is Influenza A virus. The experiment can be described thus: Antiviral activity against Influenza A2 virus Jap 170 infected in ferret trachea assessed as reduction in viral yield at 200 ug/ml after 3 days followed by compound-washout measured after 24 hrs by chick embryo-based hemagglutination titration method relative to control v. Type of experiment: functional. Also noted: scale not given: the % may be the effect or the level left.

Experiment [9] deals with Influenza A virus. Description: Antiviral activity against Influenza A2 virus Jap 170 infected in ferret trachea assessed as reduction in viral yield at 400 ug/ml after 3 days followed by compound-washout measured after 24 hrs by chick embryo-based hemagglutination titration method relative to control. Also noted: scale not given: the % may be the effect or the level left. In kind it is functional.

The subject of experiment [10] is Equine rhinovirus. The experiment can be described thus: Antiviral activity against Equine rhinovirus assessed as inhibition of virus-induced cytopathic effect after 48 hrs by two-fold dilution method.
For experiment [11], the system named is Equine rhinovirus. Description: Antiviral activity against Equine rhinovirus infected in rhesus monkey trachea assessed as reduction in viral yield at 200 ug/ml after 3 days followed by compound-washout measured after 24 hrs by human CATR cell-based titration method relative to control. Also noted: scale not given: the % may be the effect or the level left.
Experiment [12] concerns Equine rhinovirus. The experiment can be described thus: Antiviral activity against Equine rhinovirus infected in rhesus monkey trachea assessed as reduction in viral yield at 400 ug/ml after 3 days followed by compound-washout measured after 24 hrs by human CATR cell-based titration method relative to control. Also noted: scale not given: the % may be the effect or the level left.

For experiment [13], the system named is Equine rhinovirus. Description: Antiviral activity against Equine rhinovirus infected in rhesus monkey trachea assessed as reduction in viral yield at 100 ug/ml after 3 days followed by compound-washout measured after 24 hrs by human CATR cell-based titration method relative to control v. Also noted: scale not given: the % may be the effect or the level left.

Converted amounts (≈) assume the structure as drawn.

The values that follow come from ChEMBL document CHEMBL3244039, “Antiviral activity of some beta-diketones. 2. Aryloxy alkyl diketones. In vitro activity against both RNA and DNA viruses” (1977).

For the compound `CCC(=O)C(CCCCCCOc1ccc(OC)cc1Cl)C(=O)CC` [ARILDONE], the MIC is 6 µg/mL (≈ 16.3 µM) in the experiment with Human alphaherpesvirus 2 [1]; 1.5 µg/mL (≈ 4.07 µM) in the experiment on rhinovirus B14; 3 µg/mL (≈ 8.13 µM) in [2]; 1.5 µg/mL (≈ 4.07 µM) in experiment [3]; 3 µg/mL (≈ 8.13 µM) in [4]; 6 µg/mL (≈ 16.3 µM) in the experiment on Human alphaherpesvirus 1 [5]. Moreover, the MIC in the experiment with Human alphaherpesvirus 1 [6] turned out to be 6 µg/mL (≈ 16.3 µM); in the experiment on Human alphaherpesvirus 2 [7], 6 µg/mL (≈ 16.3 µM); in the experiment on rhinovirus A2 it was 0.7 µg/mL (≈ 1.9 µM); in the experiment with Equine rhinovirus [10], 1.5 µg/mL (≈ 4.07 µM). Moreover, the Activity amounted to 90% in the experiment with Influenza A virus [8]; 99.9% with Influenza A virus [9]; 98% in the experiment with Equine rhinovirus [11]; 99.5% with Equine rhinovirus [12]; 70% with Equine rhinovirus [13].
